Results as given in ChEMBL document CHEMBL3507680, “University of Dundee, Gates Library screen for HepG2 cell viability”.

Assay: Human HepG2 cell viability assay in 384 well format
Assay type: toxicity, cell-based
Set-up: dose 125 nL, time 70.5 hour; concentration not given beside the values
Details: HepG2 cells, read-out: Inhibition

SMILES	cytotoxicity at 70.5 h
Cc1cc(NS(=O)(=O)c2ccc(C(=O)O)cc2F)ccc1F	-10.7%
O=C(NCc1ccc2[nH]c(=O)[nH]c2c1)c1ccc(CN2CCCC2)o1	-9.98%
CN(C)c1ccccc1C(=O)N1CCCC(c2cccc(C(=O)O)c2)C1 (centres undefined)	-8.42%
Cn1cnc(S(=O)(=O)N2CCSC3(CCCCC3)C2)c1	4.34%
Cc1nccn1CCN(C)C(=O)C1CCN(C(=O)C2CCC2)CC1	11.3%
CCN(Cc1ccccc1)S(=O)(=O)C1CCS(=O)(=O)CC1	-10.9%
CN1CCN(CCOc2ccc(NC(=O)c3ccoc3)cc2)CC1	-4.12%
O=C(CCn1nc(C(F)(F)F)c(Cl)c1C1CC1)NN1CCOCC1	-1.82%
Cn1ccc(C(=O)N2CCCC2c2cc[nH]n2)n1 (centres undefined)	25.1%
CCc1cc(NCCCC2CCOC2)n2nccc2n1 (centres undefined)	-1.93%
CC(C)c1noc(-c2ccc(NCc3noc(C(C)C)n3)nc2)n1	-5.44%
COc1c(C)cnc(CN2CCCC2c2noc(C)n2)c1C (centres undefined)	3.95%
COCC1CN(C(=O)COc2ccccc2)Cc2cn(C)nc21 (centres undefined)	-18%
NC1CCCc2nc(-c3ccccc3)ncc21 (centres undefined)	-8.86%
Cc1nc(O)cc(CN2C[C@H](NC(=O)C3CCCC3)[C@@H](C3CC3)C2)n1	-9.17%
O=C(c1cnccn1)N1C[C@@H]2OCC(=O)N(CC3CCCCC3)[C@@H]2C1	-0.096%
CCC1CN(CC(=O)NCCN2CCCCC2)c2ccccc2S1 (centres undefined)	-3.08%
Cc1nn(C)c2nc(NCCCN3CCCC(CO)C3)sc12 (centres undefined)	-9.15%
COc1ccc2cc(C(=O)N3CC[C@H](CO)[C@H](O)C3)n(C)c2c1	2.19%
O=C([C@H]1C[C@H]2OCC[C@H]2N(C(=O)c2ccnnc2)C1)N1CCCCO1	1.65%
NC(=O)C1CCN(C(=O)c2cccn2Cc2cccs2)C1 (centres undefined)	-0.693%
COc1ccc(CNC(=O)C2(C#N)CCCC2)cc1	12.6%
Cc1ccc(OCC(=O)NCc2ccccc2F)nc1	-2.31%

SMILES	cytotoxicity at 70.5 h
CN1CC(=O)N(c2ccsc2)CC12CCN(Cc1nccn1C)C2 (centres undefined)	-0.505%
COc1cccc2cc(CNCc3ccnc(N4CCCCC4)c3)oc12	3.87%
CC1(C(=O)NCc2cccnc2Oc2ccc(F)cc2F)CCCNC1 (centres undefined)	-18.2%
CCOC1COC2(CCN(CC3CCOCC3)CC2)C1 (centres undefined)	14.7%
CN(C)Cc1ccc(N2CCN(CCOCC(F)(F)F)CC2)nc1	17.7%
COc1cccc2c1OCC(C(=O)N1CCN(C3CCSCC3)CC1)C2 (centres undefined)	-7.23%
Cc1nsc(NC(=O)NC2CCCN(C)C2)n1 (centres undefined)	29.6%
Cc1cc2c(=O)n3c(nc2s1)CCN(C(=O)c1nn(C)cc1Cl)CC3	-4.02%
CCN(Cc1nc2c(cnn2C)c(=O)[nH]1)c1ccc(OC)c(OC)c1	-7.15%
CCc1cc(N(C)Cc2cc[nH]n2)n2nc(C)c(C)c2n1	-4.44%
Cc1c(Cl)c(C(=O)NC(C)CN2CCOCC2)nn1C (centres undefined)	6.43%
COc1cccc(CC(=O)N2CCc3nc(C(N)=O)sc3CC2)c1	-8.31%
CC(NC(=O)c1ccsc1)c1ccc2c(c1)NC(=O)CO2 (centres undefined)	-3.38%
COc1cccc(S(=O)(=O)CCNC2CCc3ncnn3C2)c1 (centres undefined)	-4.52%
COCc1nc(CNC2CCCC(C)(C)C2)no1 (centres undefined)	-9.03%
CC1c2cc(F)ccc2CCN1CCCS(=O)(=O)C(C)C (centres undefined)	-2.78%
CC(C)NC(=O)NC[C@H]1OC[C@@H](NCc2cccs2)[C@@H]1O	9.03%
c1ccc(CNc2ccccc2N2CCCC2)nc1	-18.2%
CN1CCCCC1C(=O)N1CCN(c2ccccc2C#N)CC1 (centres undefined)	-2.64%
CCOCCNC(=O)c1ccc(OC)cc1I	-6.65%
Cc1nc2cc(-c3nccn3C)nn2c(N2CCCC2)c1C	-0.486%
Fc1ccc(C2CN(CCc3ccncc3)CCO2)cc1 (centres undefined)	14.4%
CN(C)S(=O)(=O)N1CCC(Oc2cnccn2)CC1	-0.386%

SMILES	cytotoxicity at 70.5 h
CNC(=O)CC1CC2(CCN(S(C)(=O)=O)CC2)c2ccccc21 (centres undefined)	-0.621%
CC(=O)N1CCN(CC(=O)NCCCN(C)c2ccccc2)CC1	-7.53%
Cc1ccnc(C2(C)CCCN2C(=O)c2cnccn2)n1 (centres undefined)	-10.4%
Cc1nc(N2CCCC2)nc2c1CCN(C(=O)NC1CCCC1)CC2	1.4%
Cn1cc(C(=O)Nc2ccc3c(c2)CN(C(=O)C2CC2)CC3)nn1	-8.54%
CC(=O)NCCNC(=O)c1ccc(C)c(-n2cccc2)c1	-10.2%
CN(Cc1cc2n(n1)CCNC2)Cc1noc(C2CCC2)n1	-3.21%
Cn1nnnc1SC1CCCN(c2cccc(F)c2)C1=O (centres undefined)	19.4%
COCc1nnc(C(=O)N(C)Cc2ccc(OC)cc2)o1	-0.9%
Cc1nc(CNC(C)c2ccc(OCC(=O)NC3CC3)cc2)cs1 (centres undefined)	3.83%
CCCn1cc(NC(=O)c2cccc(CN3CC[C@H](O)C3)c2)nn1	-11.9%
Cc1nc(CN2CCC3(CCCO3)CCC2=O)no1 (centres undefined)	-3.41%
c1ccc2c(c1)C(NC1CCCC1)CC21CCNCC1 (centres undefined)	-1.32%
O=C(NC[C@]12COC[C@H]1CN(C1CCOCC1)C2)c1ccco1	-0.469%
Cc1nc(NC(=O)c2c(-n3cnnn3)sc3c2CCC3)sc1C	-5.79%
O=C(N1CCC(OCc2ccccn2)CC1)C1(c2ccc(F)cc2)CC1	-0.41%
CCc1csc(CCNC(=O)C2CC(=O)N(C(C)C)C2)n1 (centres undefined)	4.82%
Cc1ccc2nc3n(c2c1)[C@@H](CNC(=O)c1ccncc1)COC3	4.47%
O=S(=O)(Cc1ccccc1Cl)N1CCC2(CC1)OCCS2	-5.23%
O=C(Cn1ccc(=O)cc1)NCc1ccc2sccc2c1	-7.85%
c1coc(CN2CC[C@@H]3O[C@@H](COCC4CCOCC4)CC[C@@H]32)c1	-0.874%
CC(C)N(C)[C@@H]1CCN(c2ncccn2)[C@H]1Cc1ccncc1	1.38%
OCCc1ncnn1Cc1cccc(Cl)c1	44.4%

SMILES	cytotoxicity at 70.5 h
COc1ccc(NC(=O)N2CCCC2c2ccco2)c(OC)c1 (centres undefined)	10.8%
COc1ccc(Cl)cc1-n1cnc(CCNC(C)=O)c1	-4.49%
CS(=O)(=O)c1ccc(NC(=O)NCc2ccc3c(c2)CCC3)cn1	-2.56%
CC(O)CN1CCN(C(=O)c2cccn2Cc2ccccc2)CC1 (centres undefined)	-1.63%
CCc1ccc(OCC(O)CN2CCN(CCO)CC2)cc1 (centres undefined)	-3.3%
CCN(CC)CC1CN(Cc2ccco2)Cc2nccn2C1 (centres undefined)	-4.92%
COc1nc2c(cc1C(=O)NCCc1nc3ccccc3s1)CCC2	-6.58%
Cc1cc(F)ccc1N1CCC(N2C[C@@H](C)[C@@](C)(O)C2)CC1	-5.91%
CNC(=O)C(NC(=O)c1c(C)noc1C)c1ccc(F)c(F)c1 (centres undefined)	2.39%
Cc1ccccc1C1(C(=O)NCCN(C)C)CCOCC1	-3.78%
CCc1ocnc1C(=O)N1CCN(c2ccc3ccccc3c2)CC1	4.76%
Cc1cc(C)c(CNC(=O)C2COc3ccccc3C2)c(=O)[nH]1 (centres undefined)	0.458%
O=C(c1ccccc1)N1CCC[C@]2(C[C@@H](Oc3ncccc3F)CO2)C1	23.2%
Cc1nc(NC(=O)N[C@H](CO)c2ccccc2)sc1C	-15.6%
Cc1occc1CNc1ncccc1S(N)(=O)=O	-3.76%
Cc1cc(C)c(CNC(=O)NCc2nnc3n2CCC3)c(=O)[nH]1	14.7%
Cc1ccc(NC(=O)N2CCN(Cc3ccccn3)CC2)cc1Cl	30.4%
Cc1nc2c(c(NCC3Cc4ccccc4CN3C)n1)CCNCC2 (centres undefined)	-8.03%
Cc1c(C)n(-c2ccccn2)c2nc3c(c(N)c12)CCCCC3	-10.8%
Cc1nnc(CN2CCC(N(C)Cc3nnc(C4CC4)n3C)C2)o1 (centres undefined)	-21.8%
CCOc1ncccc1CNC(=O)NCC(O)c1ccccc1OC (centres undefined)	-1.39%
O=C(CN1CCS(=O)(=O)CC1)NC1CCCc2ccccc21 (centres undefined)	-7.89%
CCNS(=O)(=O)C1CCN(C(=O)c2ccc(F)cc2)C1 (centres undefined)	1.22%

SMILES	cytotoxicity at 70.5 h
COCCN1CCC(CNC(=O)C2(S(C)(=O)=O)CCCC2)CC1	-3.79%
Cc1ccc(CN(C)Cc2nc3ccc(F)cc3[nH]2)cn1	-0.998%
COc1ccc(Cl)cc1S(=O)(=O)N(C)CC(=O)Nc1cccnc1	-5.02%
Nc1nccc(N2CCC(Cc3ccccc3Cl)(C(=O)O)CC2)n1	-2.75%
Cc1cc(CN2CCN(c3ccc4nncn4n3)CC2)no1	-11.5%
CN(C)[C@@H]1C[C@@H](CO)N(C(=O)Nc2ccc(SC(F)(F)F)cc2)C1	4.27%
CN(Cc1ccc(N(C)C)cc1)C(=O)c1cc2c([nH]c1=O)CCCC2=O	-4.35%
CSCCC(=O)N1CC[C@@H](N2CCN(c3ccccc3F)CC2)[C@H](O)C1	33.8%
COCCc1noc(CN2CCOC(Cn3cc(C)cn3)C2)n1 (centres undefined)	0.177%
Cn1c(CS(=O)(=O)Cc2cccc(Cl)c2)cc(=O)n(C)c1=O	-4.54%
N#Cc1cccnc1NCc1ccc(S(=O)(=O)NCC2CCCO2)cc1 (centres undefined)	14%
O=C(c1ccco1)N1CC[C@H]2[C@H]1CC(=O)N2c1cccnc1	21.7%
Cn1ncc2c(NC3CCCN(C(=O)C4CC4)C3)nc(C(C)(C)C)nc21 (centres undefined)	2.96%
COCCNS(=O)(=O)c1cccc2c1CN(C(=O)c1cnccn1)CC2	-3.11%
CC(C)CN(CCc1ccccc1)Cc1nc2c(cnn2C)c(=O)[nH]1	-3.12%
CC(C)Cc1nc(COc2ccc(N(C)C(N)=O)cc2)no1	-2.35%
CC(C)(C)c1nnc(CN2CCOC(Cn3cncn3)C2)o1 (centres undefined)	-1.42%
Cc1cc(C)c(CNC(=O)NCC2CCCN2C)c(=O)[nH]1 (centres undefined)	19%
CC(C)c1nn(C)c(Cl)c1CNCc1ccc2c(c1)OCCO2	3.82%
Cc1ccc(F)c(CNc2ccn(CCC(N)=O)n2)c1	3.53%
CN(C)S(=O)(=O)N1C[C@H]2CCC[C@@]2(COCc2ccccn2)C1	13.2%
Cc1nc(CNC(=O)NCC(O)c2ccccc2)cs1 (centres undefined)	-2.52%
